The test system of one series is HIV. The conditions noted are these: in vitro; cited from earlier work.

SMILES strings stand for the structures.

In general, melting point refers to the temperature, or range, at which the solid turns liquid.

With `Nc1ncnc2c1ncn2[C@@H]1O[C@H](CO)[C@H]1CO` [oxetanocin], the anti-HIV activity result in the series on HIV is “potent anti-HIV activity in vitro”.
The molecule `OCC1(n2nccn2)OCC1c1ccccc1` (stereo not drawn) [Example 2, 2-Hydroxymethyl-3-phenyl-2-(1,2,3-triazol-2-yl)oxetane] yielded a melting point of 77 to 78.3 °C.
Same read-out and setting: under `OCC1(n2nc3ccccc3n2)OCC1c1ccccc1` (stereo not drawn) [Example 1, 2-(Benzotriazol-2-yl)-2-(hydroxymethyl)-3-phenyloxetane] stands 119 to 123 °C.

The record behind these values is US7687500B2, “Substituted oxetanes, method of making, and method of use thereof” (The University of Connecticut, priority 2004, dated 2010).
